Test results taken from publication PMC12113707, “Microwave Assisted Synthesis of Antioxidant Dihydro-Pyrazole Hybrids as Possible Lipoxygenase Inhibitors” (Molecules, 2025).

Legend:
[1] = Experimental lipophilicity RM by reverse phase thin layer chromatography (RP-TLC); assay type: physicochemical; details: methanol-water mobile phase
Description: Lipophilicity is a main physicochemical parameter for bioactive molecules, linking solubility, ligand-target binding interactions, membrane permeability absorption, distribution, bioavailability, metabolism, elimination and toxicological effects (ADMET), playing an important role in biological activity. The experimental values of lipophilicity RM were determined by reverse phase thin layer chromatography. For the experimental determination of lipophilicity the hydrophilic-lipid phase system is a mixture of methanol- water (90/10%). The theoretical lipophilicity values are determined by the Bioloom program (http://biobyte.com/bb/prod/bioloom.html, accessed on 8 April 2024) (Table 1). According to the calculated clog P values, the most lipophilic compounds are 3c, 3d and 3f while the less lipophilic ones are compounds 5a and 5b.
Melting points were determined on a MEL-Temp II (Lab. Devices, Holliston, MA, USA). In vitro tests were carried out using a UV-Vis spectra and recorded on a Perkin-Elmer 554 double-beam spectrophotometer (Perkin-Elmer Corporation Ltd., Lane Beaconsfield, Bucks, UK). Infrared spectra (KBr pellets) were recorded with Perkin-Elmer 597 spectrophotometer (Perkin-Elmer Corporation Ltd., Lane Beaconsfield, Bucks, UK). The ^1H […] Magnetic Resonance (^1H-NMR) spectra were acquired on an Agilent 500/54 (DD2) at 500 MHz in CDCl3 using tetramethylsilane as an internal standard. Agilent 500/54 (DD2) ^13C NMR spectra were acquired at 125 MHz in CDCl3 solutions with tetramethylsilane serving as an internal reference. Coupling constants J are expressed in Hz, and chemical shifts are reported in ppm. Thermo Fisher Scientific Inc., Waltham, MA, USA, used MeOH as the solvent to calculate mass spectra using an LC-PDA-MS Thermo Finnigan system (LC Pump Plus, Autosampler, Surveyor PDA Plus Detector) interfaced with an ESI MSQ Plus (Thermo Finnigan). Thin-layer chromatography using 5554 F254 Silica gel/TLC cards (Merck and Fluka Chemie GmbH Buchs, Steinheim, Switzerland) was used to monitor the reaction progress. Silica gel 60 F254 plates with a diameter of 2 mm were utilized for preparative thin layer chromatography (prep TLC) by Merck KgaA (ICH078057). Merck (20 × 20 cm) plates were used for the experimental assessment of the lipophilicity using reverse phase thin-layer chromatography (RP-TLC) TLC-Silica gel 60 F254 DC Kieselgel.
In this experiment, TLC silica gel 60 F254 1.05715.0001 commercial glass plates from Merck were used. The plates were first immersed in a 5% v/v solution of liquid paraffin in petroleum ether and left for 90 s to become completely impregnated with the stable lipophilic phase. They were then activated by standing for 30 min in an oven at 40 °C and kept there until the time of use. A 70% v/v MeOH/H2O mixture was used as the mobile phase. The mobile phase was saturated with a few drops of liquid paraffin before being used. The spots of the compounds were placed on the plate at a distance of 2 cm from the edges of the plate and also from each other. The development of the spots on the plates was carried out in closed chromatography chambers where the atmosphere is saturated with the mobile phase at room temperature. At the end of development, the solvent-formed front was marked and the plates are dried at 80 °C for about 20–30 min. The appearance of the spots was made under an ultraviolet light lamp. The Rf values were the average of 5–6 measurements for each compound and assuming that the compounds will have been rotated to different positions on the plates. The RM values were calculated from the corresponding Rf values according to the equation [67].RM = log [(1/Rf) − 1](1)

[2] = Interaction with the stable free radical DPPH (reducing activity); details: 517 nm
Description: In general, the compounds present moderate to good antioxidant activity. It seems that the dibenzylacetones present satisfactory antioxidant activity compared to the hybrids at 60 min (1b, 1d and 1f).
The tested compounds (0.1 mM final concentration) dissolved in DMSO were incubated with a solution of DPPH in absolute ethanol in absence of light. The absorbance at 20 and 60 min at 517 nm was recorded at room temperature. NDGA was used as the reference compound.

[3] = Inhibition of AAPH-induced linoleic acid peroxidation; details: 37 °C, 234 nm
Description: The ability of the compounds to inhibit AAPH-induced peroxidation of linoleic acid is another assay to investigate the antioxidant properties of the compounds. Azo compounds such as 2,2′-azobis dihydrochloride (2-amidinopropane) (AAPH) are capable of generating free radicals through spontaneous decomposition at 37 °C. The R- radicals react immediately with air-oxygen to produce peroxy radicals. AAPH was therefore used as the radical initiator and sodium linoleate as substrate subjected to peroxidation. Measurements were carried out at 234 nm using a UV/V is spectrophotometer. Dichalcone 1i substituted with two phenyl groups presents the lowest lipophilicity. […] Therefore, hydrophilic substituents offer an increase in activity.
The interaction of free radicals with cell membrane lipids induces free radical chain reactions, a process called lipid peroxidation. 930 μL of a phosphate buffer solution (0.05 M, pH = 7.4), 10 μL of the sodium linolate solution (16 mM in a buffer solution of Tris-HCl pH = 9) and 10 μL of the tested compounds (stock solutions 100 μΜ) were mixed and the oxidative procedure started after the addition of 50 μL AAPH at 37 °C under air conditions. The conjugated diene’s absorbance was measured at 234 nm at a thermostable spectrophotometer (37 °C) according to previous publication.

[4] = biological target: T1, soybean lipoxygenase (SLOX-1) (Glycine max, UniProt P08170); assay: Inhibition of soybean lipoxygenase in vitro; assay type: biochemical; details: pH 9, sodium linoleate substrate; for inhibition at 100 µM: read-out: LOX% Inhibition, 100 μM (±SD)
T1 construct: 200 μL of plant-derived lipoxygenase solution (1:9 × 10^−4 w/v, in saline); purchased Sigma Chemical, Co; host or cells: soybean (plant-derived)
T1 sequence (P08170 1-839): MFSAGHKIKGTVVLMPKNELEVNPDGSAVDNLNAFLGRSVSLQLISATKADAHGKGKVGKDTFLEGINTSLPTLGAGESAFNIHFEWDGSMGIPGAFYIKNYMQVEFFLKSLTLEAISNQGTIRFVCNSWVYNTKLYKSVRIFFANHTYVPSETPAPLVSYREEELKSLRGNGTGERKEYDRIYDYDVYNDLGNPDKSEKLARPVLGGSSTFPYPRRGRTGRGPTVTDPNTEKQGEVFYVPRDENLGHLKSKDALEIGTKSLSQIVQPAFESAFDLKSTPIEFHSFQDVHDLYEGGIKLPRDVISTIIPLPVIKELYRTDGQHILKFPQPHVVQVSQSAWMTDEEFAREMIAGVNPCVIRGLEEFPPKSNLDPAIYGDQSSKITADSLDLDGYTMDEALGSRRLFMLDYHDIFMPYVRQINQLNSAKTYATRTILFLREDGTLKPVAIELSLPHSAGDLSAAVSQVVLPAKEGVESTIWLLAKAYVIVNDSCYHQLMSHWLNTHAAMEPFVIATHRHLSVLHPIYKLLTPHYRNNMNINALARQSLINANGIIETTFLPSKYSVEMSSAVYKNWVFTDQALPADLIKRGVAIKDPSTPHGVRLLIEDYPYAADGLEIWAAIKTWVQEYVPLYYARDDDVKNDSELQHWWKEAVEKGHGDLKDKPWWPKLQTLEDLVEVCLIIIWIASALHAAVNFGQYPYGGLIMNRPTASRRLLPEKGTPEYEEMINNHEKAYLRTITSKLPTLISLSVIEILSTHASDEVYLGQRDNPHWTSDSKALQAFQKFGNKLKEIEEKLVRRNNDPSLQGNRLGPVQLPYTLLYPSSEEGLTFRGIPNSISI
Description: Soybean lipoxygenase SLOX-1 at pH 9 is used in vitro. During this assay linoleic acid sodium salt is converted to the corresponding 13-hydroperoxide. The reaction is recorded photometrically at 234 nm using the UV-based enzyme assay. […] It is known that soybean LOX inhibitory activity induced by NSAIDs is qualitatively quite similar to the inhibition observed on the rat mast cells LOX and this assay may be used as a qualitative or semi-quantitative screen for such activity.
To a quartz cell, add 790 μL of Tris-HCl pH = 9.0 buffer, 200 μL of plant-derived lipoxygenase solution (1:9 × 10^−4 w/v, in saline), 10 μL of the test compound solution and 100 μL of sodium linoleate solution (3 mM concentration). The absorbance was measured at 234 nm, where the change in absorbance due to the conversion of linoleic acid to […] was recorded. A solution of 790 μL of Tris-HCl pH = 9.0 buffer, 200 μL of a plant-derived lipoxygenase solution (1:9 × 10^−4 w/v, in saline), 10 μL of DMSO and 100 μL of sodium linoleate solution (3 mM concentration) was used as a control.

SMILES	RM ± SD [1]	inhibition at 100 µM [4]	IC50 ([4]; read-out: LOX IC50 (μM) (±SD))	RA%, 100 μM, 20 min (±SD) [2]	AAPH% Inhibition, 100 μM (±SD) [3]	RA%, 100 μM, 60 min (±SD) [2]
Clc1ccc(/C=C/C2=NN(c3ccc(Br)cc3)C(c3ccc(Cl)cc3)C2)cc1 (centres unmarked) [Compound 3d, (E)-1-(4-bromo-phenyl)-5-(4-chloro-phenyl)-3-(4-chlorostyryl)-4,5-dihydro-1H-pyrazole]	1.39 ± 0.069	11 ± 0.8%		6 ± 0.5%	52 ± 2.5%	
CN(C)c1ccc(/C=C/C2=NN(c3ccc(C#N)cc3)C(c3ccc(N(C)C)cc3)C2)cc1 (centres unmarked) [Compound 4e, (E)-4-(5-(4-(dimethylamino)phenyl)-3-(4-(dimethylamino)styryl)-4,5-dihydro-1H-pyrazo-1yl)-benzonitrile]	0.49 ± 0.029	6 ± 0.5%		2 ± 0.1%	74 ± 0.9%	2 ± 0.2%
Brc1ccc(/C=C/C2=NN(c3ccccc3)C(c3ccc(Br)cc3)C2)cc1 (centres unmarked) [Compound 2c]	2.1 ± 0.17			21 ± 0.6%	68 ± 0.6%	
CC(Cc1ccc(O)c(O)c1)C(C)Cc1ccc(O)c(O)c1 (centres unmarked) [NDGA, Nordihydroguaretic acid, reference compound]				87%		93%
N#Cc1ccc(N2N=C(/C=C/c3ccccc3)CC2c2ccccc2)cc1 (centres unmarked) [Compound 4a, (E)-4-(5-phenyl-3-styryl-4,5-dihydro-1H-pyrazo-1-yl)-benzonitrile]	−0.31 ± 0.023	39 ± 0.4%			98 ± 0.4%	
N#Cc1ccc(N2N=C(/C=C/c3ccc(C(F)(F)F)cc3)CC2c2ccc(C(F)(F)F)cc2)cc1 (centres unmarked) [Compound 4f, (E)-4-(5-(4-(trifluoromethyl)phenyl)-3-(4-(trifluoromethyl)styryl)-4,5-dihydro-1H-pyrazol-1-yl)-benzonitrile]	0.8 ± 0.031	22 ± 1.8%			12 ± 1.1%	
Cc1c(C)c2c(c(C)c1O)CCC(C)(C(=O)O)O2 (centres unmarked) [Trolox, 6-Hydroxy-2,5,7,8-tetramethyl-chroman2-carboxylic acid, reference compound]					92%	
N#Cc1ccc(N2N=C(/C=C/c3ccc(F)cc3)CC2c2ccc(F)cc2)cc1 (centres unmarked) [Compound 4b, (E)-4-(5-(4-fluorophenyl)-3-(4-fluorostyryl)-4,5-dihydro-1H-pyrazo-1-yl)-benzonitrile]	0.61 ± 0.053			2 ± 0.1%	97 ± 0.6%	

The next lines start with results.

RM ± SD [1]	inhibition at 100 µM [4]	IC50 ([4]; read-out: LOX IC50 (μM) (±SD))	SMILES	RA%, 100 μM, 20 min (±SD) [2]	AAPH% Inhibition, 100 μM (±SD) [3]	RA%, 100 μM, 60 min (±SD) [2]
0.06 ± 0.005	4 ± 0.3%		NC(=O)N1N=C(/C=C/c2ccccc2)CC1c1ccccc1 (centres unmarked) [Compound 5a, (E)-5-phenyl-3-styryl-4,5-dihydro-1H-pyrazole-1-carboxamide]		29 ± 2.2%	
0.47 ± 0.036		40 µM	CC(=O)N1N=C(/C=C/c2ccc(N(C)C)cc2)CC1c1ccc(N(C)C)cc1 (centres unmarked) [Compound 6e, (E)-5-(4-dimethylaminophenyl)-3-(4-dimethylaminostyryl)-4,5-dihydro-1-H-pyrazol-1-ethan-1-one]	7 ± 0.5%	56 ± 0.3%	12 ± 1%
0.60 ± 0.055	37 ± 0.6%		NC(=O)N1N=C(/C=C/c2ccc(Br)cc2)CC1c1ccc(Br)cc1 (centres unmarked) [Compound 5c, (E)-5-(4-bromophenyl)-3-(4-bromostyryl)-4,5-dihydro-1H-pyrazole-1-carboxamide]		85 ± 0.6%	
0.24 ± 0.021	26 ± 0.3%		CC(=O)N1N=C(/C=C/c2ccc(F)cc2)CC1c1ccc(F)cc1 (centres unmarked) [Compound 6b, (E)-5-(4-fluorophenyl)-3-(4-fluorostyryl)-4,5-dihydro-1-H-pyrazol-1-ethan-1-one]		46 ± 0.6%	
0.78 ± 0.051	1 ± 0.07%		CC(=O)N1N=C(/C=C/c2ccc(Br)cc2)CC1c1ccc(Br)cc1 (centres unmarked) [Compound 6c, (E)-5-(4-bromophenyl)-3-(4-bromostyrene)-4,5-dihydro-1-H-pyrazol-1-ethan-1-one]		71 ± 0.4%	
